Results: patent publication US10543212B2, “Substituted amines for treating cardiac diseases” (Cardurion Pharmaceuticals, LLC, priority 2017, dated 2020)

target: T1, Full-length, GST-tagged, human CaMKIIδ (Homo sapiens, UniProt Q13557); experiment: CaMKIIδ binding assay (TR-FRET with BODIPY-labeled probe ligand); conditions: Table 2; CaMKIIδ binding assay, activity given as class A/B/C
T1 construct: Full-Length, Glutathione-S-Transferase(GST)-Tagged, Human CaMKIIδ was purchased from Carna Biosciences; purchased Carna Biosciences 02-111
T1 sequence (Q13557 1-478 isoform Q13557-12): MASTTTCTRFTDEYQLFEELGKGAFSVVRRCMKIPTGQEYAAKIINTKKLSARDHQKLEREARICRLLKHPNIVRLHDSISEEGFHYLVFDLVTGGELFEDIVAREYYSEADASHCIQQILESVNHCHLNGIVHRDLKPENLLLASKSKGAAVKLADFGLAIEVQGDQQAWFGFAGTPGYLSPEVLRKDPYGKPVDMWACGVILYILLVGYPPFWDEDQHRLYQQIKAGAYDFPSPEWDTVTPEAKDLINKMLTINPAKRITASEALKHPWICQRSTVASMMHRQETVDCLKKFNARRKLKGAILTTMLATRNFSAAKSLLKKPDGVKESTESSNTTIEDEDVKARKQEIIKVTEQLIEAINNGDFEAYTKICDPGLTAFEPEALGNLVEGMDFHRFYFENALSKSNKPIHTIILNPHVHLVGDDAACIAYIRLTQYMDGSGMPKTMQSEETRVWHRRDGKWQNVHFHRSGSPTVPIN
Outline: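 Compounds were tested as 4-fold, eight-point series for 1 hr at room temperature, and IC50 was obtained by logistic fitting against a 3 μM parent-compound control. Signal came from displacement of a 300 nM BODIPY ligand from 0.5 nM GST-CaMKIIδ, detected via Tb-anti-GST in calmodulin/Ca2+ (pH 7.6).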

**Q.** How did the IC50 turn out when `C[C@@H](Cn1cnnn1)Oc1cc(-c2cnc(Nc3cn([C@H]4CC[C@H](N5CC6(COC6)C5)CC4)nc3OCC(F)F)nc2)ccc1Cl` [Example 827, 5-(3-(((S)-1-(1H-tetrazol-1-yl)propan-2-yl)oxy)-4-chlorophenyl)-N-(1-(trans-4-(2-oxa-6-azaspiro[3.3]heptan-6-yl)cyclohexyl)-3-(2,2-difluoroethoxy)-1H-pyrazol-4-yl)pyrimidin-2-amine] was run?
**A.** < 10 nM

**Q.** Which IC50 does the source give for `C[C@@H](Cn1cnnn1)Oc1cc(-c2cnc(Nc3cn([C@H]4CC[C@@H](N5CC6(COC6)C5)CC4)nc3OCC(F)F)nc2)ccc1Cl` [Example 828, 5-(3-(((S)-1-(1H-tetrazol-1-yl)propan-2-yl)oxy)-4-chlorophenyl)-N-(1-(cis-4-(2-oxa-6-azaspiro[3.3]heptan-6-yl)cyclohexyl)-3-(2,2-difluoroethoxy)-1H-pyrazol-4-yl)pyrimidin-2-amine] here?
**A.** < 10 nM

**Q.** For `C[C@@H](Cn1cc(F)cn1)Oc1cc(-c2cnc(Nc3cn([C@H]4CC[C@@H](N5CCOCC5)CC4)nc3OCC(F)(F)F)nc2)ccc1C#N` [Example 829, 2-(((S)-1-(4-fluoro-1H-pyrazol-1-yl)propan-2-yl)oxy)-4-(2-((1-(cis-4-morpholinocyclohexyl)-3-(2,2,2-trifluoroethoxy)-1H-pyrazol-4-yl)amino)pyrimidin-5-yl)benzonitrile], which IC50 is on record?
**A.** 10 to 100 nM

**Q.** `C[C@@H](Cn1cc(F)cn1)Oc1cc(-c2cnc(Nc3cn([C@H]4CC[C@H](N5CCOCC5)CC4)nc3OCC(F)(F)F)nc2)ccc1C#N` [Example 830, 2-(((S)-1-(4-fluoro-1H-pyrazol-1-yl)propan-2-yl)oxy)-4-(2-((1-(trans-4-morpholinocyclohexyl)-3-(2,2,2-trifluoroethoxy)-1H-pyrazol-4-yl)amino)pyrimidin-5-yl)benzonitrile] was tested. Which IC50 did it give?
**A.** < 10 nM

**Q.** `C[C@@H](Cn1cnnn1)Oc1cc(-c2cnc(Nc3cn(C4CC5(C4)CN(C4COC4)C5)nc3C(F)(F)F)nc2)ccc1Cl` [Example 832, (S)-5-(3-((1-(1H-tetrazol-1-yl)propan-2-yl)oxy)-4-chlorophenyl)-N-(1-(2-(oxetan-3-yl)-2-azaspiro[3.3]heptan-6-yl)-3-(trifluoromethyl)-1H-pyrazol-4-yl)pyrimidin-2-amine] was tested. Which IC50 did it give?
**A.** < 10 nM

**Q.** With `C[C@H](O)Cn1cc(Nc2ncc(-c3ccc(Cl)c(O[C@@H](C)Cn4cnnn4)c3)cn2)c(OCC(F)(F)F)n1` [Example 833, (S)-1-(4-((5-(3-(((S)-1-(1H-tetrazol-1-yl)propan-2-yl)oxy)-4-chlorophenyl)pyrimidin-2-yl)amino)-3-(2,2,2-trifluoroethoxy)-1H-pyrazol-1-yl)propan-2-ol] as the compound, how does the IC50 read?
**A.** < 10 nM

**Q.** With `C[C@@H](Cn1cnnn1)Oc1cc(-c2cnc(Nc3cn([C@H]4CC[C@@H](N5CCOCC5)CC4)nc3OCC(F)F)nc2)ccc1F` [Example 834, 5-(3-(((S)-1-(1H-tetrazol-1-yl)propan-2-yl)oxy)-4-fluorophenyl)-N-(3-(2,2-difluoroethoxy)-1-(cis-4-morpholinocyclohexyl)-1H-pyrazol-4-yl)pyrimidin-2-amine] as the compound, how does the IC50 read?
**A.** 10 to 100 nM

**Q.** For `C[C@@H](Cn1cnnn1)Oc1cc(-c2cnc(Nc3cn([C@H]4CC[C@H](N5CCOCC5)CC4)nc3OCC(F)F)nc2)ccc1F` [Example 835, 5-(3-(((S)-1-(1H-tetrazol-1-yl)propan-2-yl)oxy)-4-fluorophenyl)-N-(3-(2,2-difluoroethoxy)-1-(trans-4-morpholinocyclohexyl)-1H-pyrazol-4-yl)pyrimidin-2-amine], which IC50 is on record?
**A.** < 10 nM

**Q.** `CC(C)c1nn(C2CCC(=O)CC2)cc1Nc1ncc(-c2ccc(Cl)c(O[C@@H](C)Cn3cnnn3)c2)cn1` [Example 841, (S)-4-(4-((5-(3-((1-(1H-tetrazol-1-yl)propan-2-yl)oxy)-4-chlorophenyl)pyrimidin-2-yl)amino)-3-isopropyl-1H-pyrazol-1-yl)cyclohexan-1-one] was tested. Which IC50 did it give?
**A.** < 10 nM

**Q.** `CC(C)c1nn([C@H]2CC[C@@H](N3CCOCC3)CC2)cc1Nc1ncc(-c2ccc(Cl)c(O[C@@H](C)Cn3cnnn3)c2)cn1` [Example 842, 5-(3-(((S)-1-(1H-tetrazol-1-yl)propan-2-yl)oxy)-4-chlorophenyl)-N-(3-isopropyl-1-(cis-4-morpholinocyclohexyl)-1H-pyrazol-4-yl)pyrimidin-2-amine] was tested. Which IC50 did it give?
**A.** < 10 nM

**Q.** For `C[C@@H](Cn1cnnn1)Oc1cc(-c2cnc(Nc3cn([C@H]4CC[C@H](N5[C@@H]6CC[C@H]5COC6)CC4)nc3OCC(F)F)nc2)ccc1Cl` [Example 844, 5-(3-(((S)-1-(1H-tetrazol-1-yl)propan-2-yl)oxy)-4-chlorophenyl)-N-(1-(trans-4-((1R,5S)-3-oxa-8-azabicyclo[3.2.1]octan-8-yl)cyclohexyl)-3-(2,2-difluoroethoxy)-1H-pyrazol-4-yl)pyrimidin-2-amine], which IC50 is on record?
**A.** < 10 nM

**Q.** Which IC50 does the source give for `C[C@@H](Cn1cnnn1)Oc1cc(-c2cnc(Nc3cn(CCNC(=O)OC(C)(C)C)nc3C(F)(F)F)nc2)ccc1Cl` [Example 845, tert-butyl (S)-(2-(4-((5-(3-((1-(1H-tetrazol-1-yl)propan-2-yl)oxy)-4-chlorophenyl)pyrimidin-2-yl)amino)-3-(trifluoromethyl)-1H-pyrazol-1-yl)ethyl)carbamate] here?
**A.** 10 to 100 nM

**Q.** `CC(=O)NCCn1cc(Nc2ncc(-c3ccc(Cl)c(O[C@@H](C)Cn4cnnn4)c3)cn2)c(C(F)(F)F)n1` [Example 846, (S)-N-(2-(4-((5-(3-((1-(1H-tetrazol-1-yl)propan-2-yl)oxy)-4-chlorophenyl)pyrimidin-2-yl)amino)-3-(trifluoromethyl)-1H-pyrazol-1-yl)ethyl)acetamide] was tested. Which IC50 did it give?
**A.** 10 to 100 nM

**Q.** With `C[C@@H](Cn1cnnn1)Oc1cc(-c2cnc(Nc3cn(CC(C)(C)O)nc3C(F)(F)F)nc2)ccc1Cl` [Example 847, (S)-1-(4-((5-(3-((1-(1H-tetrazol-1-yl)propan-2-yl)oxy)-4-chlorophenyl)pyrimidin-2-yl)amino)-3-(trifluoromethyl)-1H-pyrazol-1-yl)-2-methylpropan-2-ol] as the compound, how does the IC50 read?
**A.** < 10 nM

**Q.** How did the IC50 turn out when `C[C@@H](Cn1cnnn1)Oc1cc(-c2cnc(Nc3cn(CS(C)(=O)=O)nc3C(F)(F)F)nc2)ccc1Cl` [Example 848, (S)-5-(3-((1-(1H-tetrazol-1-yl)propan-2-yl)oxy)-4-chlorophenyl)-N-(1-((methylsulfonyl)methyl)-3-(trifluoromethyl)-1H-pyrazol-4-yl)pyrimidin-2-amine] was run?
**A.** < 10 nM

**Q.** How did the IC50 turn out when `C[C@@H](Cn1cnnn1)Oc1cc(-c2cnc(Nc3cn([C@H]4C[C@@H](N5CCOCC5)C4)nc3OCC(F)F)nc2)ccc1Cl` [Example 849, (S)-5-(3-((1-(1H-tetrazol-1-yl)propan-2-yl)oxy)-4-chlorophenyl)-N-(3-(2,2-difluoroethoxy)-1-(cis-3-morpholinocyclobutyl)-1H-pyrazol-4-yl)pyrimidin-2-amine] was run?
**A.** < 10 nM

**Q.** How did the IC50 turn out when `C[C@@H](Cn1cnnn1)Oc1cc(-c2cnc(Nc3cn([C@H]4C[C@@H](NC5CCOCC5)C4)nc3OCC(F)F)nc2)ccc1Cl` [Example 850, (S)-5-(3-((1-(1H-tetrazol-1-yl)propan-2-yl)oxy)-4-chlorophenyl)-N-(3-(2,2-difluoroethoxy)-1-(cis-3-((tetrahydro-2H-pyran-4-yl)amino)cyclobutyl)-1H-pyrazol-4-yl)pyrimidin-2-amine] was run?
**A.** < 10 nM

**Q.** For `C[C@@H](Cn1cnnn1)Oc1cc(-c2cnc(Nc3cn(C4CCC(CC(=O)O)CC4)nc3C(F)(F)F)nc2)ccc1Cl` (stereo partly drawn) [Example 851, (S)-2-(4-(4-((5-(3-((1-(1H-tetrazol-1-yl)propan-2-yl)oxy)-4-chlorophenyl)pyrimidin-2-yl)amino)-3-(trifluoromethyl)-1H-pyrazol-1-yl)cyclohexyl)acetic acid], which IC50 is on record?
**A.** ≥ 100 nM
